Among the data in patent US12421205B2, “GLP-1 receptor agonist” (HYUNDAI PHARM CO., LTD., priority 2019, dated 2025) are inhibition and EC50 values, retold here.

Each structure is given as a SMILES string. Some results are limits rather than exact numbers.

For one series, the target named is T1, hERG (Homo sapiens, UniProt Q12809).
T1 construct: purchased Invitrogen PV5365
In words: hERG inhibition test (Predictor hERG Fluorescence Polarization assay kit). It counts as binding. The conditions noted are these: probe kit Tracer (fluorescent hERG ligand), hERG % inhibition at 10 uM, relative to E-4031 and solvent control. The protocol: To measure the hERG (Human ether-a-go-go-related gene) channel inhibition rate of the compound according to the present invention, the following test was performed using a Predictor hERG Fluorescence Polarization assay kit (Invitrogen, PV5365).
Specifically, a test substance was dissolved in DMSO to prepare a 50 mM solution. A 4 mM solution was prepared by diluting the 50 mM solution with DMSO in a U bottom 96-well plate (SPL, 34096), and was then diluted 100-fold with a test buffer to prepare a 40 uM (4×) solution. The positive control E-4031 (3 mM) provided in the kit was diluted 25-fold with a test buffer to prepare a 120 uM solution) 5 uL of the diluted test substance solution was dispensed into a 384-well assay plate (corning, 3677). hERG Membrane (2×) and Tracer (4×) provided in the kit were respectively added at 10 uL and 5 uL, and then subjected to the reaction at room temperature for 2.5 hours. After completion of the reaction, fluorescence polarization (mP) was measured with a Multimode Plate Reader (Perkin-Elmer, Envision) (excitation wavelength of 531 nm, and emission wavelength 579 nm). The value of the percent inhibitory activity (% inhibition) at 10 uM of each test substance was calculated by the following equation, and the results are shown in Table 2: (% inhibition)=100−{(mP of the compound according to the present invention−E-4031 mP)/(mP of the solvent control−E-4031 mP)}×100

Another series concerns the target T2, human GLP-1 receptor (Homo sapiens, UniProt P43220).
T2 construct: host or cells: CHO-K1
In words: cAMP activity test (cAMP dynamic HTRF kit) in CHO-K1/GLP-1 receptor-expressing cells. The note with it: cAMP activity, CHO-K1/GLP-1 receptor-expressing cells; read-out: EC50. It counts as cell-based. How it is done:
The next day, the medium was removed, and a 50 uL of HBSS medium containing 0.1% BSA, 0.5 mM IBMX, and 5 mM HEPES was added to each well. […] The cAMP activity was measured according to the manufacturer's instructions using the cAMP dynamic HTRF kit (Cisbio, 62AM4PEC). After incubation, the medium was discarded, and the cells were lysed. cAMP-d2 and anti-cAMP cryptate conjugate were added thereto and reacted for 3 hours. […] Intracellular cAMP competes with cAMP-d2 for anti-cAMP cryptate, and the measured signal of fluorescence resonance energy transfer (FRET) is inversely proportional to intracellular cAMP.
(In general: In TR-FRET formats the signal depends on donor and acceptor labels being close together.)

T2 sequence (P43220 24-463): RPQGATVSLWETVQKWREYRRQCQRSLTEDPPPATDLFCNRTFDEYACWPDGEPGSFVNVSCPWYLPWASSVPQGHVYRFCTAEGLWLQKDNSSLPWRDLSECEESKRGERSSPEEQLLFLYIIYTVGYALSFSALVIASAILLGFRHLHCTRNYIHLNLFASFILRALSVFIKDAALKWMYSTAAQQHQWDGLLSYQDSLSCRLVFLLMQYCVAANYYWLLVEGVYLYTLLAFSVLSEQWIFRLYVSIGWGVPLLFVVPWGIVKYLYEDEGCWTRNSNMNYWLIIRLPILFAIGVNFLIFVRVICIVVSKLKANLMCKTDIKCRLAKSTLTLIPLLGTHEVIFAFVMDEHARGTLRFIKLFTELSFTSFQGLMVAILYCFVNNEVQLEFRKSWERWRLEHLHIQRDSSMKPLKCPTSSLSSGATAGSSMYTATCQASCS
T1 sequence (Q12809 whole entry): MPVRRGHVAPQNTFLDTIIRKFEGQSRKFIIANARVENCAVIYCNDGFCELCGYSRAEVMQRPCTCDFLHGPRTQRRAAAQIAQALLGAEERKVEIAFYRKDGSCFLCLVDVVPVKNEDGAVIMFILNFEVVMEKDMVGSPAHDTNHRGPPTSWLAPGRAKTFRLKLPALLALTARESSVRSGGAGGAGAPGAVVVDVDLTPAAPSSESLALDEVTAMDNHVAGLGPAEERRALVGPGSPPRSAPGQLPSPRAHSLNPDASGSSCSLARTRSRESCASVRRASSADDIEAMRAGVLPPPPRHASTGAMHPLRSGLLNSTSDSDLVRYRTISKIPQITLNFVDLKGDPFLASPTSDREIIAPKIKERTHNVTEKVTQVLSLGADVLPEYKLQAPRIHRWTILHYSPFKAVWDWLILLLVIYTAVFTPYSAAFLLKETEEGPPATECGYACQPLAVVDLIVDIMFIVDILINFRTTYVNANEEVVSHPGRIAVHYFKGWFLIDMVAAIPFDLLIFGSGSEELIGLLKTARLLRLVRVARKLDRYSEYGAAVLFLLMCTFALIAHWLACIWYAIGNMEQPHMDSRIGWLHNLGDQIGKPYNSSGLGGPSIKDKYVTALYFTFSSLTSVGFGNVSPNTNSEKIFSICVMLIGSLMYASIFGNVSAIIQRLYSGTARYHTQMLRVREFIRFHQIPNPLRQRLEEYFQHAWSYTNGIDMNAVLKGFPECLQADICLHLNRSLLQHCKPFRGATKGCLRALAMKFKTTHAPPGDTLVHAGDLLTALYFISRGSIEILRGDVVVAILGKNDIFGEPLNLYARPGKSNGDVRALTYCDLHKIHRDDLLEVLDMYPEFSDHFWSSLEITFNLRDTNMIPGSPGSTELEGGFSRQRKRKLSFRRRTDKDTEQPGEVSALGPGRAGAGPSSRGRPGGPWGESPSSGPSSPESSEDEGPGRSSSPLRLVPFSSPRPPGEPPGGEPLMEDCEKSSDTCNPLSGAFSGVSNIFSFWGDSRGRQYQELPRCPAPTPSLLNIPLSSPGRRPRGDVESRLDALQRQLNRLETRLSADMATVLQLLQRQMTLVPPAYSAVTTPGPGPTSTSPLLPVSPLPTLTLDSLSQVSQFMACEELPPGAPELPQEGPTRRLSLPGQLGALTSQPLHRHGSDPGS

On to `Cc1cc(-c2cccc(OCc3ccc(C#N)cc3F)n2)ccc1Cc1nc2ccc(C(=O)O)cc2n1CC1CCCO1` (stereo not drawn) [Example 68, 2-(4-(6-(4-cyano-2-fluorobenzyloxy)pyridin-2-yl)-2-methylbenzyl)-1-((tetrahydrofuran-2-yl)methyl)-1H-benzo[d]imidazole-6-carboxylic acid], for which the inhibition at 2.5 h, 10 µM on hERG is -11.4%. For the same molecule, the EC50 on human GLP-1 receptor worked out at 29 nM.
The matching figures for `COc1cc(-c2cccc(OCc3ccc(C#N)cc3F)n2)ccc1Cc1nc2ccc(C(=O)O)cc2n1CC1CCCO1` (stereo not drawn) [Example 64, 2-(4-(6-(4-cyano-2-fluorobenzyloxy)pyridin-2-yl)-2-methoxybenzyl)-1-((tetrahydrofuran-2-yl)methyl)-1H-benzo[d]imidazole-6-carboxylic acid]: -9.05% and 110 nM.
Consider `O=C(O)c1ccc2nc(Cn3ccc(-c4cccc(OCc5ccc(Cl)cc5F)c4)cc3=O)n(CC3CCCO3)c2c1` (stereo not drawn) [Example 106, 2-((4-(3-(4-chloro-2-fluorobenzyloxy)phenyl)-2-oxopyridin-1(2H)-yl)methyl)-1-((tetrahydrofuran-2-yl)methyl)-1H-benzo[d]imidazole-6-carboxylic acid], for which, at hERG, the inhibition at 2.5 h, 10 µM is -2.71%. Besides, the EC50 on human GLP-1 receptor came to 110 nM.
The corresponding values for `N#Cc1ccc(COc2cccc(-c3ccc(Cc4nc5ccc(C(=O)O)cc5n4C[C@@H]4CCO4)cc3F)n2)c(F)c1` [Example 74, (S)-2-(4-(6-(4-cyano-2-fluorobenzyloxy)pyridin-2-yl)-3-fluorobenzyl)-1-(oxetan-2-ylmethyl)-1H-benzo[d]imidazole-6-carboxylic acid] are -16.2% and 5.8 nM.
The corresponding values for `O=C(O)c1ccc2nc(Cc3ccc(-c4cccc(OCc5ccc(Cl)cc5F)n4)c(F)c3)n(C[C@@H]3CCCO3)c2c1` [Example 60, (S)-2-(4-(6-((4-chloro-2-fluorobenzyl)oxy)pyridin-2-yl)-3-fluorobenzyl)-1-((tetrahydrofuran-2-yl)methyl)-1H-benzo[d]imidazole-6-carboxylic acid] are -5.42% and below 3.2 nM.
With `CCn1cncc1Cn1c(Cc2ccc(-c3cccc(OCc4ccc(Cl)cc4F)n3)cc2F)nc2ccc(C(=O)O)cc21` [Example 72, 2-(4-(6-(4-chloro-2-fluorobenzyloxy)pyridin-2-yl)-2-fluorobenzyl)-1-((1-ethyl-1H-imidazole-5-yl)methyl)-1H-benzo[d]imidazole-6-carboxylic acid], the inhibition at 2.5 h, 10 µM at hERG is -5.75%. In addition, the EC50 on human GLP-1 receptor is below 3.2 nM.
Turning to `O=C(O)c1ccc2nc(Cc3ccc(-c4cccc(OCc5ccc(Cl)cc5F)n4)cc3F)n(Cc3ccco3)c2c1` [Example 13, 2-(4-(6-(4-chloro-2-fluorobenzyloxy)pyridin-2-yl)-2-fluorobenzyl)-1-(furan-2-ylmethyl)-1H-benzo[d]imidazole-6-carboxylic acid], the inhibition at 2.5 h, 10 µM on hERG was -7.76%. Further, the EC50 on human GLP-1 receptor was 35 nM.
Consider `Cc1ccc(COc2cccc(-c3ccc(Cc4nc5ccc(C(=O)O)cc5n4CC4CCCO4)c(F)c3)n2)cc1` (stereo not drawn) [Example 76, 2-(2-fluoro-4-(6-(4-methylbenzyloxy)pyridin-2-yl)benzyl)-1-((tetrahydrofuran-2-yl)methyl)-1H-benzo[d]imidazole-6-carboxylic acid], for which the inhibition at 2.5 h, 10 µM at hERG was -0.5%. On human GLP-1 receptor, the EC50 came to 38 nM.
As for `Cc1cccc(COc2cccc(-c3ccc(Cc4nc5ccc(C(=O)O)cc5n4CC4CCCO4)c(F)c3)n2)c1` (stereo not drawn) [Example 80, 2-(2-fluoro-4-(6-(3-methylbenzyloxy)pyridin-2-yl)benzyl)-1-((tetrahydrofuran-2-yl)methyl)-1H-benzo[d]imidazole-6-carboxylic acid], the inhibition at 2.5 h, 10 µM on hERG was -25.2%. In addition, the EC50 on human GLP-1 receptor was 190 nM.
The corresponding values for `COc1ccc(COc2cccc(-c3ccc(Cc4nc5ccc(C(=O)O)cc5n4C[C@@H]4CCO4)cc3F)n2)cc1` [Example 122, (S)-2-(3-fluoro-4-(6-((4-methoxybenzyl)oxy)pyridin-2-yl)benzyl)-1-(oxetan-2-ylmethyl)-1H-benzo[d]imidazole-6-carboxylic acid] are -5.75% and 9.5 nM.
Consider `O=C(O)c1ccc2nc(Cc3ccc(-c4cccc(OCc5ccc(Cl)cc5F)n4)cc3F)n(Cc3cnco3)c2c1` [Example 34, 2-(4-(6-(4-chloro-2-fluorobenzyloxy)pyridin-2-yl)-2-fluorobenzyl)-1-(oxazol-5-ylmethyl)-1H-benzo[d]imidazole-6-carboxylic acid], for which the inhibition at 2.5 h, 10 µM on hERG was -12.6%. Also, on human GLP-1 receptor, the EC50 worked out at 9.2 nM.
With `COc1cccc(COc2cccc(-c3ccc(Cc4nc5ccc(C(=O)O)cc5n4Cc4ccco4)nc3)c2)c1` [Example 23, 1-(furan-2-ylmethyl)-2-((5-(3-(3-methoxybenzyloxy)phenyl)pyridin-2-yl)methyl)-1H-benzo[d]imidazole-6-carboxylic acid], the inhibition at 2.5 h, 10 µM on hERG was -6.89%. Besides, on human GLP-1 receptor, the EC50 was found to be 610 nM.
For `N#Cc1ccc(COc2cc(-c3ccc(Cc4nc5ccc(C(=O)O)cc5n4CC4CCCO4)c(F)c3)ccc2F)c(F)c1` (stereo not drawn) [Example 96, 2-((3′-(4-cyano-2-fluorobenzyloxy)-3,4′-difluorobiphenyl-4-yl)methyl)-1-((tetrahydrofuran-2-yl)methyl)-1H-benzo[d]imidazole-6-carboxylic acid], on hERG, the inhibition at 2.5 h, 10 µM is 5.19%. Moreover, at human GLP-1 receptor, the half-maximal effective concentration (EC50) was found to be 830 nM.
For the molecule `Cc1cc(-c2cccc(OCc3ccc(Cl)cc3F)n2)ccc1Cc1nc2ccc(C(=O)O)cc2n1CC1CCCO1` (stereo not drawn) [Example 69, 2-(4-(6-(4-chloro-2-fluorobenzyloxy)pyridin-2-yl)-2-methylbenzyl)-1-((tetrahydrofuran-2-yl)methyl)-1H-benzo[d]imidazole-6-carboxylic acid], at hERG, the inhibition at 2.5 h, 10 µM is -14.7%. For the same molecule, on human GLP-1 receptor, the EC50 was 31 nM.
For the molecule `N#Cc1ccc(COc2cccc(-c3ccc(Cc4nc5ccc(C(=O)O)cc5n4CCF)c(F)c3)n2)c(F)c1` [Example 44, 2-(4-(6-(4-cyano-2-fluorobenzyloxy)pyridin-2-yl)-2-fluorobenzyl)-1-(2-fluoroethyl)-1H-benzo[d]imidazole-6-carboxylic acid], the inhibition at 2.5 h, 10 µM at hERG is 1.77%. In addition, on human GLP-1 receptor, the EC50 amounted to 230 nM.
In the case of `O=C(O)c1ccc2nc(Cc3ccc(-c4cccc(OCc5ccc([N+](=O)[O-])cc5)n4)c(F)c3)n(C[C@@H]3CCO3)c2c1` [Example 124, (S)-2-(3-fluoro-4-(6-((4-nitrobenzyl)oxy)pyridin-2-yl)benzyl)-1-(oxetan-2-ylmethyl)-1H-benzo[d]imidazole-6-carboxylic acid], at hERG, the inhibition at 2.5 h, 10 µM is 7.28%. Also, the EC50 at human GLP-1 receptor amounted to 4.3 nM.
Turning to `COCCn1c(Cc2ccc(-c3cccc(OCc4ccc(Cl)cc4F)c3)cc2)nc2ccc(C(=O)O)cc21` [Example 22, 2-((3′-(4-chloro-2-fluorobenzyloxy)biphenyl-4-yl)methyl)-1-(2-methoxyethyl)-1H-benzo[d]imidazole-6-carboxylic acid], the inhibition at 2.5 h, 10 µM at hERG was -15.5%. Moreover, the EC50 at human GLP-1 receptor came out at 130 nM.
For `N#Cc1ccc(COc2cccc(-c3ccc(Cc4nc5ccc(C(=O)O)cc5n4Cc4ccco4)c(F)c3)n2)c(F)c1` [Example 19, 2-(4-(6-(4-cyano-2-fluorobenzyloxy)pyridin-2-yl)-2-fluorobenzyl)-1-(furan-2-ylmethyl)-1H-benzo[d]imidazole-6-carboxylic acid], the inhibition at 2.5 h, 10 µM at hERG was 1.8%. Moreover, the EC50 on human GLP-1 receptor was 40 nM.
The corresponding values for `O=C(O)c1ccc2nc(Cc3ccc(-c4cccc(OCc5ccc(Cl)cc5F)n4)c(F)c3)n(C[C@H]3CCCO3)c2c1` [Example 52, (R)-2-(4-(6-(4-chloro-2-fluorobenzyloxy)pyridin-2-yl)-3-fluorobenzyl)-1-((tetrahydrofuran-2-yl)methyl)-1H-benzo[d]imidazole-6-carboxylic acid] are 24.2% and 110 nM.
The corresponding values for `O=C(O)c1ccc2nc(Cc3ccc(-c4cccc(OCc5ccc(Cl)cc5F)c4)cc3F)n(CCF)c2c1` [Example 56, 2-((3′-(4-chloro-2-fluorobenzyloxy)-3-fluorobiphenyl-4-yl)methyl)-1-(2-fluoroethyl)-1H-benzo[d]imidazole-6-carboxylic acid] are 0.83% and 800 nM.
The corresponding values for `O=C(O)c1ccc2nc(Cn3ccc(-c4cccc(OCc5ccc(Cl)cc5F)n4)cc3=O)n(CC3CCCO3)c2c1` (stereo not drawn) [Example 105, 2-((4-(6-(4-chloro-2-fluorobenzyloxy)pyridin-2-yl)-2-oxopyridin-1(2H)-yl)methyl)-1-((tetrahydrofuran-2-yl)methyl)-1H-benzo[d]imidazole-6-carboxylic acid] are 25.1% and 46 nM.

As a reminder, the inhibition is the relative decrease from the control value, in per cent. What is called EC50 is the concentration needed to bring the measured effect to its halfway point.
